The record followed here is US20180258428A1, “METHODS AND COMPOSITIONS FOR THE TREATMENT OF A METABOLIC DISORDER” (Children's Hospital Medical Center, priority 2017, published 2018).

Like-named read-outs stand apart in the source and are kept apart here.

The test system of experiment [1] is primary hepatocytes. The experiment in a line: Glucose production assay in primary hepatocytes. It counts as cell-based, mouse. The conditions noted are these: primary hepatocytes from L-Ago2 WT and KO mice, 100 or 200 μM. How it is done: To investigate how Ago2 regulates glucose metabolism, Applicant first examined capacities of hepatic gluconeogenesis in Ago2-deficient primary hepatocytes. […] Applicant additionally asked if Ago2 regulates the fundamental catabolic capacities of hepatocytes. To examine the glycolytic rate, the extracellular acidification rate (ECAR) was determined in primary hepatocytes upon addition of glucose. […] Glycolysis produces pyruvate that is used as an energy source for the citric acid cycle.
Glucose production assay. Mouse primary hepatocytes were cultured in 12-well plates (0.4×10^6 cells per well) in William E supplemented with 10% FBS. Next day, cells were cultured with 1 ml of DMEM (5.5 mM glucose) supplemented with 10% FBS. Post plating for 21 hours, cells were washed twice with PBS and were subjected 3-4 hours to serum starvation with FBS-free DMEM (5.5 mM glucose). After washing twice with PBS, cells were cultured in 0.4 ml of glucose production buffer consisting of glucose-free DMEM (pH 7.4) without phenol red supplemented with 20 mM sodium lactate, 2 mM sodium pyruvate, 2 mM L-glutamine and 15 mM HEPES^62. Cells were incubated at 37° C. for 4.5 hours with or without Bt-cAMP or pCPT-cAMP. Both medium and cells were collected. The glucose concentration was measured with the Autokit Glucose (WAKO) and was normalized by the total protein content.

The test system of experiment [2] is primary hepatocytes. The experiment in a line: ATP/ADP ratio assay in primary hepatocytes with metformin. Format: cell-based, mouse. The following applies: Ago2-deficient primary hepatocytes, 1 mM metformin. The source says: To further examine if Ago2 deficiency accelerates cellular energy consumption associated with protein synthesis, Applicant treated primary hepatocytes with metformin, which is an anti-diabetic drug and inhibits mitochondrial respiratory-chain complex I activity restricting ATP generation^40, and measured ATP/ADP levels. […] To directly investigate the effect of Ago2-deficiency on protein synthesis in hepatocytes, Applicant measured the levels of nascent protein synthesis. […] By restricting energy supply using phenformin and rotenone, both of which inhibit mitochondrial respiratory-chain complex I activity, the levels of nascent protein synthesis in Ago2-deficient hepatocytes were equivalent or still higher compared to those in controls (FIG. 6G).
Primary hepatocytes. Hepatocytes were isolated from liver of 12-14 weeks old L-Ago2 WT and 607 L-Ago2 KO mice by a two-step perfusion method as described previously^59 with a slight modification. […]
ATP/ADP ratio assay. The ATP/ADP ratio in the mouse liver extract or primary hepatocytes was determined using a bioluminescent ATP/ADP Ratio Assay Kit (Abcam) according to the manufacturer's instructions. […]

The subject of experiment [3] is AMPK. The experiment in a line: AMPK activation in primary hepatocytes with metformin (western blot). It counts as cell-based, mouse. The conditions noted are these: Ago2-deficient primary hepatocytes versus controls, 1 mM metformin.
Method: Primary hepatocytes. Hepatocytes were isolated from liver of 12-14 weeks old L-Ago2 WT and 607 L-Ago2 KO mice by a two-step perfusion method as described previously^59 with a slight modification. Briefly, the liver was first perfused with 30 ml of HBSS supplemented with 10 mM HEPES, 0.5 mM EGTA and 5 mM glucose and then digested with 35 mL of Collagenase X 610 (WAKO) at 100 U/mL dissolved in HBSS buffer supplemented with 10 mM HEPES and 5 mM CaCl2. Liver was collected after perfusion and hepatocyte were released and sedimented at 60 G for 2 mM. Hepatocyte suspension was then layered on a 40% percoll solution (GE Healthcare Life Sciences) and centrifuged at 800 G for 10 min. The alive hepatocytes were recovered from the bottom of the tube and seeded on culture plates.
Protein extraction and immunoblot analysis. To prepare protein lysates, cells were washed with cold PBS, followed by lysis in cold mammalian cell lysis buffer [MCLB: 50 mM Tris-HCl (pH 7.4), 150 mM NaCl, 10 mM NaF, 5% glycerol, 1% NP-40, 1% protease and phosphatase inhibitor cocktail]. […]
For experiment [4] the following is noted: for glucose tolerance (GTT): one week; for hepatic glycogen contents (S961-induced glycogenolysis) / serum insulin levels (S961-induced hyperinsulinemia): 2 weeks post S961 with metformin.
Method: (§1) Mice. Animal care and experimental procedures were performed according to procedures approved by the animal care committees of our medical center. […] The ALZET osmotic pump were used to deliver 10 nM S961 or vehicle (PBS) in a two-week period. GTTs were performed by intraperitoneal glucose injection (1.5 g/kg) following an overnight food withdrawal for 14 hours. […] Mouse plasma insulin levels were measured using Mouse Ultrasensitive Insulin ELISA kit (ALPCO).
Experiment [5] in a line: Fasting blood glucose in HFD-fed mice before and after oral metformin. Format: in vivo, mouse. The conditions noted are these: oral metformin 80 mg/kg/day for 7 days.
Method: as §1
A further experiment deals with MD-miRNAs. Put plainly: Hepatic miRNA and mRNA expression after S961 or S961 plus metformin treatment. It counts as in vivo, mouse. The conditions noted are these: 2 weeks. The source says:
Expression profiles that assessed the effect of insulin insufficiency on miRNAs in the liver categorized four different classes of miRNAs; (I) dominantly expressed in L-Ago2 WT, (II) induced by S961 in both L-Ago2 WT and KO, (III) suppressed by S961 in both L-Ago2 WT and KO, and (IV) expressed in L-Ago2 KO (FIG. 3d). […] These analyses implicate hepatic Ago2-dependent miRNAs play a role in the disruption of glucose metabolism under the condition of insulin insufficiency.
Quantitative real-time PCR analysis. For mRNA quantification, total RNA was extracted using Trizol reagent (Invitrogen). Total RNA was converted to first strand cDNA using SuperScript® VILO™ cDNA Synthesis Kit (Invitrogen). Quantitative real-time PCR analysis was performed using SYBR Select Master Mix (Applied Biosystems) in a real-time PCR machine (QuantStudio 6 Flex Real-Time PCR system; Thermo Fisher Scientific). To normalize expression data, β-actin mRNA was used as a housekeeping gene. For miRNA quantification, total RNA was extracted using miRNeasy Micro Kit (Qiagen) according to manufacturer's instructions. TaqMan miRNA assays (Life Technologies) were used and real-time PCR were carried out for mature miRNA quantification. Primary miRNAs were quantified using TaqMan […] assays. Sno202 and β-actin were used as internal controls.
High-throughput sequencing of miRNA. […]

The subject of experiment [6] is AMPK. The experiment in a line: AMPK activation in MEFs with cycloheximide (western blot). Format: cell-based, mouse. The following applies: 25 μg/ml cycloheximide for 8 hours. The text has this: Since Ago2 slicer activity uniquely regulates RNA silencing, Applicant then asked if the slicer activity is involved in the regulation of energy consumption and AMPK activation. […] More importantly, Applicant also observed that AMPK activity, assessed by phosphorylation levels of AMPKα and ACC, was higher in Ago2-deficient MEFs under serum starvation condition (FIG. 16A). […] While activated AMPKα is known to suppress mRNA translation^41, levels of nascent protein synthesis in Ago2-deficient MEFs are increased compared to the cells reconstituted with WT Ago2 (FIG. 16B). To investigate if enhanced protein synthesis reasons AMPK activation in Ago2-deficiency, Applicant treated MEFs with cycloheximide (CHX), a protein synthesis inhibitor, and monitored AMPK activation.
Mouse embryonic fibroblasts. Ago2-deficient fibroblasts reconstituted with Ago2 WT or DA mutant that were kindly provided by Dr. Eric Lai^22. Applicant generated Ago2^fl/fl MEFs through the 3T3 protocol and performed an adenovirus-mediated gene transfer for Cre or LacZ expression to obtain Ago2-deficient MEFs^60. MEF cells were cultured in Dulbecco Modified Eagle Medium (DMEM) (Thermo Fisher Scientific: #11965) supplemented with 10% FBS. For western blot analyses of AMPK, MEF cells were plated at a density of 1×10^5 cells per well of 6-well plate for overnight. […]

Consider `CCCC(=O)Nc1ncnc2c1ncn2[C@@H]1O[C@@H]2COP(=O)(O)O[C@H]2[C@H]1OC(=O)CCC` [Bt-cAMP, dibutyryl cyclic AMP], for which the glucose production entry in the experiment on primary hepatocytes [1] was “similarly induced between genotypes”.

Turning to `CN(C)C(=N)N=C(N)N` [metformin], the “relative ATP/ADP levels” value in the experiment with primary hepatocytes [2] is given as “rapidly decreased”. Also, the “levels of metformin-induced AMPK activation” value in the experiment with AMPK [3] is “significantly higher than that in controls”. The “glucose tolerance (GTT)” value is “no change in glucose tolerance” in experiment [4] (L-Ago2 KO mice treated with S961, metformin 150 mg/kg/day via osmotic pumps) and “improved glucose tolerance” in experiment [4] (L-Ago2 WT mice treated with S961, metformin 150 mg/kg/day via osmotic pumps). Also, the results for the “hepatic glycogen contents (S961-induced glycogenolysis)” value in experiment [4] (L-Ago2 KO mice) and in experiment [4] (L-Ago2 WT mice) were “blunted” and “alleviated”, respectively. For the same molecule, the “serum insulin levels (S961-induced hyperinsulinemia)” value in experiment [4] (L-Ago2 KO mice) is “blunted”; in experiment [4] (L-Ago2 WT mice) it was “alleviated S961-induced hyperinsulinemia”. In addition, the “fasting blood glucose levels” value is on record as “no change upon metformin treatment” in experiment [5] (L-Ago2 KO mice fed HFD) and “reduced fasting blood glucose levels” in experiment [5] (L-Ago2 WT mice fed HFD). The “expression of MD-miRNAs in liver” value with MD-miRNAs (Ago2-deficient liver) is recorded as “did not affect their expression levels”. In addition, the “expression of S961-induced MD-miRNAs in liver” value in the experiment with MD-miRNAs (L-Ago2 WT mice) is given as “drastic suppression”.

Consider `C[C@@H]1C[C@@H]([C@H](O)CC2CC(=O)NC(=O)C2)C(=O)[C@@H](C)C1` [cycloheximide], for which the AMPK activation result with AMPK [6] (Ago2-deficient MEFs) is reported as “more robust”; in the experiment with AMPK [6] (WT MEFs), “reduction of AMPK activation”.

With `Nc1ncnc2c1nc(Sc1ccc(Cl)cc1)n2[C@@H]1O[C@@H]2COP(=O)([O-])O[C@H]2[C@H]1O.[Na+]` [pCPT-cAMP, 8-(4-Chlorophenylthio)adenosine 3′,5′-cyclic monophosphate], the glucose production entry with primary hepatocytes [1] was “similarly induced between genotypes”.
